According to US5128347A, “Glycosidase inhibiting 1,4-dideoxy-4-fluoronojirimycin” (Monsanto Company, priority 1990, dated 1992):

What was measured:
Format in all cases: biochemical
[1] = tested on: almond β-glucosidase; test: β-Glucosidase inhibition assay, pH 4.8; conditions: 5 mM test compound
Protocol: (§1) The glycosidase inhibition activity is determined by modifying an assay procedure described in Evans et al, Phytochemistry, 22, pp. 768-770 (1983). More particularly, yeast α-glucosidase and almond β-glucosidase activities were measured by the Evans et al method which was modified by assaying activities at pH 7.4 in N-2-hydroxyethylpiperazine-N-2-ethane sulfonic acid (HEPES) buffer, measuring in 96 well microtiter plates, and including 10% DMSO in control and test samples.
(§2) The release of p-nitrophenol from the substrate p-nitrophenylglycoside was measured spectrophotometrically in the presence and absence of test compound. Each assay included a known inhibitor of the enzyme as a standard. IC50 values were determined for compounds which inhibited the enzymes more than 50% at a 1 millimolar concentration.
β-Glucosidase Inhibition Assay
To 100 ul 50 mM sodium citrate buffer, pH 4.8, in a microtiter plate, 20 ul test compound in DMSO (DMSO alone in control) and 20 ul (0.017 units) β-glucosidase (Sigma) in citrate buffer were added and pre-incubated at room temperature 15 minutes. […] 50 ul 0.4 M NaOH was added and the absorption change at 405 nm was determined utilizing a Biotek EIA Autoreader. […] IC50 values were determined from the linear portion of the log concentration vs percent inhibition curve obtained from a minimum of 3 points. […]

[2] = biological target: T1, yeast α-glucosidase (Saccharomyces cerevisiae, UniProt P53341); test: α-Glucosidase inhibition assay, pH 7.4; conditions: 5 mM test compound, read-out: ALPHA GLUCOSIDASE pH 7.4 (enzyme inhibition)
T1 construct: purchased Sigma
T1 sequence (P53341 whole entry): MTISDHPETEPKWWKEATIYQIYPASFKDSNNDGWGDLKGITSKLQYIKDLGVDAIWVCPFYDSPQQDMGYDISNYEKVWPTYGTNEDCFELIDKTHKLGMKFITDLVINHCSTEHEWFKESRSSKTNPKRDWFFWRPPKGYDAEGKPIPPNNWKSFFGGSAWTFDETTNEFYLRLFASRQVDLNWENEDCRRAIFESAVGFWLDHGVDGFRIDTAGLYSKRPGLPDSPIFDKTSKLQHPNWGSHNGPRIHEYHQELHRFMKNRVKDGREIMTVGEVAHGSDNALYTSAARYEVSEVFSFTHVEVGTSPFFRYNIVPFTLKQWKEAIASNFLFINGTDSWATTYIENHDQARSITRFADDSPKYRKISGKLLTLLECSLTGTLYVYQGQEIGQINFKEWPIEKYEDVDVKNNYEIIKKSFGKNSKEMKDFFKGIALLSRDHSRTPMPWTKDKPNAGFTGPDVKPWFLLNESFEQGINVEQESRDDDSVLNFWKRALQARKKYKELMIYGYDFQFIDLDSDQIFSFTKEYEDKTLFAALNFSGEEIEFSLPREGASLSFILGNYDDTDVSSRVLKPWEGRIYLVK
Protocol: as §1
(§3) The release of p-nitrophenol from the substrate p-nitrophenylglycoside was measured spectrophotometrically in the presence and absence of test compound. Each assay included a known inhibitor of the enzyme as a standard. […]
To 100 ul 50 mM HEPES buffer, pH 7.4, in a microtiter plate, 20 ul test compound in DMSO (DMSO alone in control)and 40 ul (0.013 units) yeast α-glucosidase (Sigma) in HEPES buffer were added and pre-incubated at room temperature 15 minutes. 40 ul 1.25 mM p-nitrophenyl-α-D-glucopyranoside (Sigma) in HEPES buffer, as substrate was added and the absorbance change at 405 nm was monitored in a Biotek EIA Autoreader. Absorption change was measured at 15 to 25 minutes (reaction was linear for at least 30 minutes). […] IC50 values were determined from the linear portion of the log concentration vs percent inhibition curve obtained from a minimum of 3 points. […]

[3] = biological target: T2, alpha mannosidase (Canavalia ensiformis, UniProt C0HJB3); test: α-Mannosidase inhibition, pH 4.5; conditions: 5 mM test compound, read-out: ALPHA MANNOSIDASE pH 4.5 (enzyme inhibition)
T2 sequence (C0HJB3 1-981): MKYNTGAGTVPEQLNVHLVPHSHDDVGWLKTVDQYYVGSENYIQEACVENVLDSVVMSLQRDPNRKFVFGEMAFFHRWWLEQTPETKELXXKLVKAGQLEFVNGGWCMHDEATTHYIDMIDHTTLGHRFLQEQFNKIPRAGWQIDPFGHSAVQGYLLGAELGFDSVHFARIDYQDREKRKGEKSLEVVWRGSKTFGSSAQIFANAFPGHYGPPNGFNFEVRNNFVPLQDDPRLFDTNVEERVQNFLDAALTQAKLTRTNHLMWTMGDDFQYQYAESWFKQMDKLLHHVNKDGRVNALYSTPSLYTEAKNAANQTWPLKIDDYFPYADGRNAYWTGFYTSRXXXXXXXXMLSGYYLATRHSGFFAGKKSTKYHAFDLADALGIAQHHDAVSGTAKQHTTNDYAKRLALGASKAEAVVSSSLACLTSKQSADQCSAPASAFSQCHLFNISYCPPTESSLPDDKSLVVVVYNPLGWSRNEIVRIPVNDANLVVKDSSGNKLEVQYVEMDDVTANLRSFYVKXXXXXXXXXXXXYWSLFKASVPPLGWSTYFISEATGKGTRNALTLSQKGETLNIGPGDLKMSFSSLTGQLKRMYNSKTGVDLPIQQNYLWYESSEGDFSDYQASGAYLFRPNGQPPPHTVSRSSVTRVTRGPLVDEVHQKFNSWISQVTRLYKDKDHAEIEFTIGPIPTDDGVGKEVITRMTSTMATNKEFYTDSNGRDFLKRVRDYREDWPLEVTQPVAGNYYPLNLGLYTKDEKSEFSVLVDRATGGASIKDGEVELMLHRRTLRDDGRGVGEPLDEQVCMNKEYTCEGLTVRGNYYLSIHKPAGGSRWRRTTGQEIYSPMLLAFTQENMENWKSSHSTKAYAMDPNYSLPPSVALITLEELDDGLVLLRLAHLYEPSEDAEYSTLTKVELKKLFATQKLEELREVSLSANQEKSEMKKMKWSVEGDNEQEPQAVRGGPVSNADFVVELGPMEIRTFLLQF
Protocol: as §2

[4] = tested on: almond β-glucosidase; test: β-Glucosidase inhibition assay, pH 7.4; conditions: 5 mM test compound
Protocol: as §1, §3
To 100 ul 50 mM HEPES buffer, pH 7.4, in a microtiter plate, 20 ul test compound in DMSO (DMSO alone in control) and 40 ul (0.136 units) β-glucosidase (Sigma) in HEPES buffer were added and preincubated at room temperature 15 minutes. 40 ul 1.25 mM p-nitrophenyl-β-D-glucopyranoside in HEPES buffer was added as substrate and the absorbance change at 405 nm was monitored utilizing a Biotek EIA Autoreader. Absorption change was measured at 15 to 25 minutes (reaction is linear for at least 30 minutes). […] IC50 values were determined from the linear portion of the log concentration vs percent inhibition curve obtained from a minimum of 3 points. […]

[5] = biological target: T2, alpha mannosidase; test: α-Mannosidase inhibition, pH 7.4; conditions: 5 mM test compound, read-out: ALPHA MANNOSIDASE pH 7.4 (enzyme inhibition)
Protocol: as §2

Compound	BETA GLUCOSIDASE pH 4.8 (enzyme inhibition) [1] [%]	inhibition at 5000 µM [2] [%]	inhibition at 5000 µM [3] [%]	BETA GLUCOSIDASE pH 7.4 (enzyme inhibition) [4] [%]	inhibition at 5000 µM [5] [%]
CCCCN1C[C@H](O)[C@@H](O)[C@H](F)[C@H]1CO [Compound 2, N-butyl-1,4-dideoxy-4-fluoronojirimycin]	13	28	-3	14	6
OC[C@H]1NC[C@H](O)[C@@H](O)[C@@H]1F [Compound 1, 1,4-dideoxy-4-fluoronojirimycin]	17	18	-2	13	12
